Tests used:
[1] = system: STAT5 phosphorylation in CD4+ Treg cells; assay: STAT5 phosphorylation in CD4+ Treg cells, human PBMC assay by FACS; assay type: cell-based
Outline: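 Donor PBMCs were starved in serum-free buffer at 4° C for 1 h, then 2×10^5 cells were exposed to serial dilutions of IL-2 variants for 30 min at 37° C. After fixation and permeabilization they were stained for CD4, CD25, FOXP3 and pSTAT5. Read-out is percent pSTAT5+ cells among CD4+/Foxp3+/CD25^high (Treg) or CD4+/Foxp3−/CD25^low (Tconv) cells by flow cytometry.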

[2] = system: CD4+ Treg vs CD4+ Tconv cells; assay: STAT5 phosphorylation, selectivity / activity profile Treg versus CD4+ Tconv cells, human PBMC; assay type: cell-based
Outline: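 Fresh human PBMC from a healthy donor, serum-starved 1 h at 4 °C, then exposed to serial dilutions of IL-2 variants for 30 min at 37 °C. After fixation/permeabilization, cells stained for CD4, CD25, FOXP3 and pSTAT5 and analysed by flow cytometry. Treg (CD4+/Foxp3+/CD25high) and Tconv (CD4+/Foxp3−/CD25low) gated; read-out is percent pSTAT5-positive cells.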

[3] = system: STAT5 phosphorylation in CD8+ T cells; assay: STAT5 phosphorylation in CD8+ T cells, human PBMC; assay type: cell-based
From the text: The Stat5 phosphorylation activity on other responder cells than CD4+ T cell subsets, including CD8+T and NK, by P-0511 was compared to P-0531, the S125I equivalent of wild-type P-0250. […] IL-2 receptors expressed on CD4+ Tconv, CD8+T and NK cells are primarily dimeric IL-2Rs, comprising IL-2R6 and γc.

CD8+ T cells = assay: CD8+ T cell proliferation, CFSE dilution, human PBMC; assay type: cell-based; details: 5 or 7 days incubation
Description: Further, P-0511 and P-0512 were tested for their ability to stimulate NK and CD8+ T cells proliferation in comparison with the wild type and benchmark molecules. Intracellular fluorescent label carboxyfluorescein diacetate succinimidyl ester (CFSE) method was utilized. Briefly, human PBMC (1×10^5 cells/well) were labeled with CFSE, plated onto 96-well plates, and incubated with increasing concentrations of different IL-2 compounds. Cells were then harvested after 5 or 7 days of incubation and stained with either anti-CD56-APC antibody for NK cells or anti-CD8-APC antibody for CD8+ T cells; and analyzed by flow cytometry. Data are expressed as a percent of divided cells and illustrated in FIG. 10A for CD8+ T cell proliferation and FIG. 10B for NK cell proliferation.

[4] = system: KLH-induced DTH in Balb/C mice; assay: KLH-induced delayed-type hypersensitivity (DTH) mouse model, ear thickness; assay type: in vivo; details: for inhibition of ear inflammation (separate study): Q5D
Description: The ability of Treg cells induced by IL-2 variants to suppress T cell antigen-driven inflammation in vivo was assessed in a model of delayed-type hypersensitivity (DTH). Female Balb/C mice (7-week old) were acclimated in house for 7 days and randomized into groups. Subcutaneous administration of vehicle (PBS), P-0511 at either 0.1 mg/kg or 0.3 mg/kg was initiated on day −2 and was given either once every 3 days (Q3D) for three injections or once every 5 days (Q5D) for two injections. Mice were then sensitized with a subcutaneous administration of 100 μg keyhole limpet hemocyanin (KLH) in 200 μl saline on day 0. For Q3D dosing, two more subcutaneous injections of PBS or P-0511 (0.1 or 0.3 mg/kg) were administered on days 1, and 4; for Q5D dosing, one additional s.c. injection of PBS, 0.1 or 0.3 mg/kg P-0511 was administered on day 3. Mice received an intradermal challenge of KLH (5 μg in 10 μl saline) in right ear on day 5. Right ear thickness was measured using a caliper on day 5 prior KLH challenge and daily from day 6 to day 9 corresponding to 24 h, 48 h, 72 h and 96 h post KLH challenge. One group of mice also received 5 mg/kg daily i.p. treatment of dexamethasone from day 5 to day 8 as a positive control.
Kinetics of the DTH response using the change in ear thickness relative to baseline values (Δ ear thickness) at various times after KLH challenge was illustrated in FIG. 23.

Treg cells = assay: Treg proliferation and expansion in mice after a single s.c. injection of bifunctional constructs (Example 17); assay type: in vivo, mouse; details: 15 nmol/kg single s.c., C57/BL6 mice
Description: IL-2 variant tocilizumab bifunctional proteins P-0536, P-0546, P-0559, and P-0560 along with IL-2 variant Fc fusion protein P-0511 were administered to mice, and their ability to preferentially proliferate and expand regulatory T cells (CD4+CD25+FoxP3+ T cells) over effector T cells and NK cells were determined in vivo.
Female C57/BL6 mice (7-week old) were received from Charles River Laboratory and acclimated in house for at least 7 days before the study. Vehicle (PBS) and 15 nmol/kg each test compounds were subcutaneously administered to mice on day 0. Peripheral blood samples were collected into heparin-treated tubes on days 2, 4 and 8 post-treatment. Each group contained 5 mice and baseline blood was collected 3 days prior to the treatment (day −3).

P-0511: IL-2 L19H/S125I/Q126E Fc fusion, SEQ ID NO: 213
potency in ex vivo cell assay relative to P-0560 [1]: over 100 fold
activity profile / selectivity window Treg over CD4+ Tconv (in words) [2]: further widened the Treg selectivity window
Treg Selectivity ([2]; Isoleucine-125 constructs): Yes
STAT5 phosphorylation activity in CD8+ T cells (in words) [3]: nearly completely abolished
potency in stimulating CD8+ T cell proliferation (in words) (CD8+ T cells): on par with Benchmark-3
suppression of DTH ear swelling ([4]; 0.1 mg/kg s.c., Q3D and Q5D): did not reach statistical significance at most of the time points
inhibition of ear inflammation (separate study) ([4]; 0.1 mg/kg): mild
inhibition of ear inflammation (separate study) ([4]; 0.3 mg/kg): Intermediate
inhibition of ear inflammation (separate study) ([4]; 1 mg/kg): strong resistance to KLH-induced DTH
potency in inducing Treg cell proliferation and expansion in vivo (in words) (Treg cells): comparable in vivo Treg stimulation efficacy as P-0560

— US20220170028A1, “NOVEL INTERLEUKIN-2 VARIANTS AND BIFUNCTIONAL FUSION MOLECULES THEREOF” (Cugene Inc, priority 2019, published 2022)
